Assay results as given in patent US20250115620A1, “BRIDGED TRICYCLIC CARBAMOYLPYRIDONE COMPOUNDS AND USES THEREOF” (Gilead Sciences, Inc., priority 2022, published 2025).
Read-outs that look alike come from different tables or passages of the source.

What was measured:
HIV-1 (IIIB) = experiment: microbe, parasite or virus in culture; assay type: cell-based; settings: Human immunodeficiency virus 1, IIIB, MT4, 120 h, read-out: MT4 EC50
Method: Compounds were tested in a high-throughput 384-well assay format for their ability to inhibit the replication of HIV-1 (IIIB) in MT-4 cells. Compounds were serially diluted (1:3) in DMSO on 384-well polypropylene plates and further diluted 200-fold into complete RPMI media (10% FBS, 1% P/S) using the Biotek Micro Flow and Labcyte ECHO acoustic dispenser. Each plate contained up to 8 test compounds, with negative (No Drug Control) and 5 μM AZT positive controls. MT-4 cells were pre-infected with 10 μL of either RPMI (mock-infected) or a fresh 1:250 dilution of HIV-1 IIIB concentrated virus stock. Infected and uninfected MT-4 cells were further diluted in complete RPMI media and added to each plate using a Micro Flow dispenser. After 5 days incubation in a humidified and temperature controlled incubator (37° C.), Cell Titer Glo (Promega) was added to the assay plates and chemiluminescence read using an Envision plate-reader.

pLAI reporter virus = experiment: microbe, parasite or virus in culture; assay type: cell-based, HIV; settings: Human immunodeficiency virus 1, MT4, 72 h
in vitro = settings: human, uninfected MT-4 cells
[1] = HIV-1 (IIIB) in MT-4 cells, 5 days incubation, Cell Titer Glo

| SMILES | EC50 (HIV-1 (IIIB); [1]) | EC50 (pLAI reporter virus; read-out: RLUC 50% HS EC50) | EC50 (pLAI reporter virus; read-out: RLUC CCM EC50) | CC50 at 5 days (in vitro) | EC50 (HIV-1 (IIIB)) |
| --- | --- | --- | --- | --- | --- |
| C[C@H]1CC[C@]2(CC(=O)N(C)O2)[C@H]2CN1C(=O)c1c(O)c(=O)c(C(=O)NCc3c(F)cc(F)cc3F)cn12 [Example 108, (3′S,5S,7′R)-12′-hydroxy-2,3′-dimethyl-1′,3,11′-trioxo-N-(2,4,6-trifluorobenzyl)-1′,4′,5′,11′-tetrahydro-3′H,7′H-spiro[isoxazolidine-5,6′-[2,7]methanopyrido[1,2-a][1,4]diazonine]-10′-carboxamide] | 3.5 nM | 7.8 nM | 0.5 nM | ≥ 50000 nM | – |
| C[C@H]1CC[C@]2(CC(=O)N(Cc3ccc(Cl)cc3)O2)[C@H]2CN1C(=O)c1c(O)c(=O)c(C(=O)NCc3c(F)cc(F)cc3F)cn12 [Example 109, (3′S,5S,7′R)-2-(4-chlorobenzyl)-12′-hydroxy-3′-methyl-1′,3,11′-trioxo-N-(2,4,6-trifluorobenzyl)-1′,4′,5′,11′-tetrahydro-3′H,7′H-spiro[isoxazolidine-5,6′-[2,7]methanopyrido[1,2-a][1,4]diazonine]-10′-carboxamide] | 1.6 nM | 3.9 nM | 0.3 nM | 2890 nM | – |
| C[C@H]1CC[C@]2(CC(=O)N(Cc3ccc(F)cc3F)O2)[C@H]2CN1C(=O)c1c(O)c(=O)c(C(=O)NCc3c(F)cc(F)cc3F)cn12 [Example 110, (3′S,5S,7′R)-2-(2,4-difluorobenzyl)-12′-hydroxy-3′-methyl-1′,3,11′-trioxo-N-(2,4,6-trifluorobenzyl)-1′,4′,5′,11′-tetrahydro-3′H,7′H-spiro[isoxazolidine-5,6′-[2,7]methanopyrido[1,2-a][1,4]diazonine]-10′-carboxamide] | 1.2 nM | 2.9 nM | 0.3 nM | 12000 nM | – |
| C[C@H]1CC[C@]2(CC(=O)N(Cc3cccc(C(F)(F)F)c3)O2)[C@H]2CN1C(=O)c1c(O)c(=O)c(C(=O)NCc3c(F)cc(F)cc3F)cn12 [Example 111, (3′S,5S,7′R)-12′-hydroxy-3′-methyl-1′,3,11′-trioxo-N-(2,4,6-trifluorobenzyl)-2-(3-(trifluoromethyl)benzyl)-1′,4′,5′,11′-tetrahydro-3′H,7′H-spiro[isoxazolidine-5,6′-[2,7]methanopyrido[1,2-a][1,4]diazonine]-10′-carboxamide] | 2.3 nM | 1.9 nM | 0.4 nM | 7230 nM | – |
| C[C@H]1CC[C@]2(CC(=O)N(Cc3ccc4ncsc4c3)O2)[C@H]2CN1C(=O)c1c(O)c(=O)c(C(=O)NCc3c(F)cc(F)cc3F)cn12 [Example 112, (3′S,5S,7′R)-2-(benzo[d]thiazol-6-ylmethyl)-12′-hydroxy-3′-methyl-1′,3,11′-trioxo-N-(2,4,6-trifluorobenzyl)-1′,4′,5′,11′-tetrahydro-3′H,7′H-spiro[isoxazolidine-5,6′-[2,7]methanopyrido[1,2-a][1,4]diazonine]-10′-carboxamide] | 0.7 nM | 0.4 nM | 0.2 nM | ≥ 50000 nM | – |
| C[C@H]1CC[C@]2(CC(=O)N(Cc3ccc4scnc4c3)O2)[C@H]2CN1C(=O)c1c(O)c(=O)c(C(=O)NCc3c(F)cc(F)cc3F)cn12 [Example 113, (3′S,5S,7′R)-2-(benzo[d]thiazol-5-ylmethyl)-12′-hydroxy-3′-methyl-1′,3,11′-trioxo-N-(2,4,6-trifluorobenzyl)-1′,4′,5′,11′-tetrahydro-3′H,7′H-spiro[isoxazolidine-5,6′-[2,7]methanopyrido[1,2-a][1,4]diazonine]-10′-carboxamide] | 0.7 nM | 0.7 nM | 0.1 nM | ≥ 50000 nM | – |
| C[C@H]1CC[C@]2(CC(=O)N(Cc3cccc4[nH]cnc34)O2)[C@H]2CN1C(=O)c1c(O)c(=O)c(C(=O)NCc3c(F)cc(F)cc3F)cn12 [Example 114, (3′S,5S,7′R)-2-((1H-benzo[d]imidazol-4-yl)methyl)-12′-hydroxy-3′-methyl-1′,3,11′-trioxo-N-(2,4,6-trifluorobenzyl)-1′,4′,5′,11′-tetrahydro-3′H,7′H-spiro[isoxazolidine-5,6′-[2,7]methanopyrido[1,2-a][1,4]diazonine]-10′-carboxamide] | 6.1 nM | 5.9 nM | 1.9 nM | ≥ 50000 nM | – |
| C[C@H]1CC[C@]2(CC(=O)N(Cc3ccc(C#N)cc3)O2)[C@H]2CN1C(=O)c1c(O)c(=O)c(C(=O)NCc3c(F)cc(F)cc3F)cn12 [Example 118, (3′S,5S,7′R)-2-(4-cyanobenzyl)-12′-hydroxy-3′-methyl-1′,3,11′-trioxo-N-(2,4,6-trifluorobenzyl)-1′,4′,5′,11′-tetrahydro-3′H,7′H-spiro[isoxazolidine-5,6′-[2,7]methanopyrido[1,2-a][1,4]diazonine]-10′-carboxamide] | 2.6 nM | 0.4 nM | 0.4 nM | ≥ 50000 nM | – |
| COc1ccc(CN2O[C@@]3(CC[C@H](C)N4C[C@H]3n3cc(C(=O)NCc5c(F)cc(F)cc5F)c(=O)c(O)c3C4=O)CC2=O)cc1 [Example 119, (3′S,5S,7′R)-12′-hydroxy-2-(4-methoxybenzyl)-3′-methyl-1′,3,11′-trioxo-N-(2,4,6-trifluorobenzyl)-1′,4′,5′,11′-tetrahydro-3′H,7′H-spiro[isoxazolidine-5,6′-[2,7]methanopyrido[1,2-a][1,4]diazonine]-10′-carboxamide] | 1.5 nM | 2.3 nM | 0.5 nM | ≥ 50000 nM | – |
| C[C@H]1CC[C@]2(CCC(=O)N2)[C@H]2CN1C(=O)c1c(O)c(=O)c(C(=O)NCc3c(F)cc(F)cc3F)cn12 [Example 121, (2S,3′S,7′R)-12′-hydroxy-3′-methyl-1′,5,11′-trioxo-N-(2,4,6-trifluorobenzyl)-1′,4′,5′,11′-tetrahydro-3′H,7′H-spiro[pyrrolidine-2,6′-[2,7]methanopyrido[1,2-a][1,4]diazonine]-10′-carboxamide] | 86.5 nM | 19.9 nM | 16.9 nM | ≥ 50000 nM | – |
| C[C@H]1CC[C@]2(CCCN2)[C@H]2CN1C(=O)c1c(O)c(=O)c(C(=O)NCc3c(F)cc(F)cc3F)cn12 [Example 122, (2R,3′S,7′R)-12′-hydroxy-3′-methyl-1′,11′-dioxo-N-(2,4,6-trifluorobenzyl)-1′,4′,5′,11′-tetrahydro-3′H,7′H-spiro[pyrrolidine-2,6′-[2,7]methanopyrido[1,2-a][1,4]diazonine]-10′-carboxamide] | – | 7.6 nM | 0.9 nM | 38000 nM | 6.4 nM |
| C[C@H]1CC[C@@]2(CC(O)CO2)[C@H]2CN1C(=O)c1c(O)c(=O)c(C(=O)NCc3c(F)cc(F)cc3F)cn12 (stereo partly drawn) [Example 123, (2R,3′S,7′R)-4,12′-dihydroxy-3′-methyl-1′,11′-dioxo-N-(2,4,6-trifluorobenzyl)-1′,4,4′,5,5′,11′-hexahydro-3H,3′H,7′H-spiro[furan-2,6′-[2,7]methanopyrido[1,2-a][1,4]diazonine]-10′-carboxamide] | 8.4 nM | 1.4 nM | 2.1 nM | ≥ 50000 nM | – |
| CC1C[C@@]2(CC[C@H](C)N3C[C@H]2n2cc(C(=O)NCc4c(F)cc(F)cc4F)c(=O)c(O)c2C3=O)OCO1 (stereo partly drawn) [Example 124, (3′S,4R,7′R)-12′-hydroxy-3′,6-dimethyl-1′,11′-dioxo-N-(2,4,6-trifluorobenzyl)-1′,4′,5′,11′-tetrahydro-3′H,7′H-spiro[[1,3]dioxane-4,6′-[2,7]methanopyrido[1,2-a][1,4]diazonine]-10′-carboxamide] | 0.8 nM | 0.4 nM | 0.2 nM | 29800 nM | – |
| C[C@H]1CCC2(OCCO2)[C@H]2CN1C(=O)c1c(O)c(=O)c(C(=O)NCc3c(F)cc(F)cc3F)cn12 [Example 125, (3′S,7′R)-12′-hydroxy-3′-methyl-1′,11′-dioxo-N-(2,4,6-trifluorobenzyl)-1′,4′,5′,11′-tetrahydro-3′H,7′H-spiro[[1,3]dioxolane-2,6′-[2,7]methanopyrido[1,2-a][1,4]diazonine]-10′-carboxamide] | 0.7 nM | 30.2 nM | 0.2 nM | 24200 nM | – |
| C[C@H]1CO[C@]2(CC[C@H](C)N3C[C@H]2n2cc(C(=O)NCc4c(F)cc(F)cc4F)c(=O)c(O)c2C3=O)O1 [Example 127, (2R,3′S,4S,7′R)-12′-hydroxy-3′,4-dimethyl-1′,11′-dioxo-N-(2,4,6-trifluorobenzyl)-1′,4′,5′,11′-tetrahydro-3′H,7′H-spiro[[1,3]dioxolane-2,6′-[2,7]methanopyrido[1,2-a][1,4]diazonine]-10′-carboxamide] | 1.2 nM | 13.3 nM | 0.1 nM | 49900 nM | – |
| C[C@H]1CCC2(OCCCO2)[C@H]2CN1C(=O)c1c(O)c(=O)c(C(=O)NCc3c(F)cc(F)cc3F)cn12 [Example 128, (3′S,7′R)-12′-hydroxy-3′-methyl-1′,11′-dioxo-N-(2,4,6-trifluorobenzyl)-1′,4′,5′,11′-tetrahydro-3′H,7′H-spiro[[1,3]dioxane-2,6′-[2,7]methanopyrido[1,2-a][1,4]diazonine]-10′-carboxamide] | 1.1 nM | 18.4 nM | 0.2 nM | 20500 nM | – |
| C[C@H]1CCC2(OCCO2)[C@H]2CN1C(=O)c1c(O)c(=O)c(C(=O)NCc3ccc(F)cc3F)cn12 [Example 129, (3′S,7′R)—N-(2,4-difluorobenzyl)-12′-hydroxy-3′-methyl-1′,11′-dioxo-1′,4′,5′,11′-tetrahydro-3′H,7′H-spiro[[1,3]dioxolane-2,6′-[2,7]methanopyrido[1,2-a][1,4]diazonine]-10′-carboxamide] | 0.5 nM | 8 nM | 0.2 nM | 27400 nM | – |
